Laboratory results published in ChEMBL document CHEMBL2062421, “The antioxidant effect of imine resveratrol analogues” (Bioorg Med Chem Lett, 2012).
Activity calls are given as the source filed them. The rule behind the calls is not given here.

Key:
[1] = Antioxidant activity assessed as DPPH scavenging activity after 30 mins by microplate reader method; assay type: functional
[2] = Antioxidant activity assessed as singlet 1O2 oxygen quenching activity after 2 mins by EPR spectrometry; assay type: functional
[3] = Antioxidant activity assessed as complete inhibition of singlet 1O2 oxygen formation at 37 uM after 2 mins by EPR spectrometry
[4] = Antioxidant activity assessed as inhibition of singlet 1O2 oxygen formation at 1.3 uM after 2 mins by EPR spectrometry; assay type: functional
[5] = Antioxidant activity assessed as inhibition of TEMP-singlet 1O2 oxygen adduct formation measuring after 2 mins by EPR spectrometry; assay type: functional
[6] = Ratio of resveratrol IC50 to compound IC50 for singlet 1O2 oxygen quenching activity

SMILES	IC50 [1] [µM]	IC50 [2] [µM]	further results
Oc1cccc(/N=C/c2ccccc2O)c1	468	–	–
Cc1ccc(/N=C/c2cccc(O)c2)cc1	> 1000	–	–
Oc1cccc(/C=N/c2ccccc2O)c1	23.1	2.18	–
Oc1ccc(/N=C/c2cc(O)cc(O)c2)cc1	164	–	–
COc1cc(/C=C/C(=O)CC(=O)/C=C/c2ccc(O)c(OC)c2)ccc1O [CURCUMIN]	–	2.75	–
Oc1ccc(/C=N/c2ccccc2O)cc1O	12.1	2.26	–
Oc1cccc(/C=N/c2ccccc2)c1	> 1000	–	–
Oc1ccc(/N=C/c2ccccc2)cc1 [4-(BENZYLIDENEAMINO)PHENOL]	142	–	–
Oc1ccccc1/C=N/c1ccccc1 [2-((PHENYLIMINO)METHYL)PHENOL]	> 1000	–	–
O=C1O[C@H]([C@@H](O)CO)C(O)=C1O [ASCORBIC ACID]	19.3	–	–
Oc1ccc(/C=N/c2cccc(O)c2)cc1	362	–	–
Oc1ccc(/C=C/c2cc(O)cc(O)c2)cc1 [RESVERATROL]	71.2	16.9	–
COc1cccc(/C=N/c2ccc(C)cc2)c1	> 1000	–	–
Oc1ccccc1/N=C/c1ccccc1	23.9	3.47	–
Oc1ccccc1/C=N/c1ccccc1O	27.4	2.92	–
Oc1ccc(/C=N/c2ccccc2O)cc1	24.3	0.99	inhibition [3]: Active; inhibition [4]: Active; inhibition [5]: Dose-dependent effect; Ratio IC50 [6]: > 15
COc1cccc(/C=N/c2ccccc2C)c1	> 1000	–	–
COc1ccc(/C=N/c2ccc(OC)cc2)cc1	> 1000	–	–
Cc1cccc(/N=C/c2ccc(O)cc2)c1	> 1000	–	–
COc1ccc(/C=N/c2ccccc2O)cc1	28.1	1.3	–
COc1cccc(/C=N/c2ccccc2O)c1	24.9	1.42	–
Cc1ccc(/N=C/c2ccc(O)cc2)cc1	> 1000	–	–
COc1cc(/C=N/c2ccc(O)cc2)cc(OC)c1	413	–	–
COc1ccc(/N=C/c2ccc(O)cc2)cc1	> 1000	–	–
C(=N\c1ccccc1)/c1ccccc1	> 1000	–	–
Oc1ccc(/N=C/c2ccccc2O)cc1	561	–	–
